Laboratory results published in ChEMBL document CHEMBL1201862, “PubChem BioAssay data set” (2004).
Calls of active or inactive are those of the source. Unless noted, no cut-off for these calls is given here.

Columns and labels:
Mu-type opioid receptor [1] = target: T1, Mu-type opioid receptor (Homo sapiens, UniProt P35372); experiment: mu opioid receptor blockers – image-based, SAR follow-up (AID 2420); type: functional;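 note: compounds added before stimulation of receptor with agonist DAMGO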
[2] = target: T2, Delta-type opioid receptor (Homo sapiens, UniProt P41143); experiment: DOR agonists, SAR follow-up, image-based (AID 2370); type: functional
[3] = target: T3, Kappa-type opioid receptor (Homo sapiens, UniProt P41145); experiment: kappa opioid receptor blockers, image-based, SAR follow-up (AID 2348); type: functional
Mu-type opioid receptor [4] = target: T1, Mu-type opioid receptor; experiment: mu opioid receptor activators, image-based, SAR follow-up (AID 2352); type: functional
[5] = target: T3, Kappa-type opioid receptor; experiment: SAR analysis of small molecule agonists of the kappa opioid receptor via a luminescent beta-arrestin assay. [Related pubchem assays (depositor defined):AID1777, AID1786, AID1966, AID2133, AID2136, AID2348, AID2352, AID2357, AID2359, AID2370, AID2420, AID2478, AID2491, AID2492, AID2493, AID2497, AID2498, AID2500, AID449737, AID488822, AID488842]; type: functional
[6] = target: T3, Kappa-type opioid receptor; experiment: kappa opioid receptor activation potency – imaging, image-based, SAR follow-up (AID 2359); type: functional
[7] = target: T2, Delta-type opioid receptor; experiment: delta opioid receptor blockers – image-based, SAR follow-up (AID 2357); type: functional
[8] = target: T4, E3 ubiquitin-protein ligase XIAP (Homo sapiens, UniProt P98170); experiment: SAR analysis of Antagonists of XIAP-Bir3 domain of IAP-family anti-apoptotic proteins. [Related pubchem assays (depositor defined):AID1018, AID1449, AID1513, AID1514, AID1638]
[9] = target: T4, E3 ubiquitin-protein ligase XIAP; experiment: SAR analysis of Antagonists of IAP-family anti-apoptotic proteins. [Related pubchem assays (depositor defined):AID1018, AID1449, AID1513, AID1514, AID1638]
Cannabinoid receptor 2 [10] = target: T5, Cannabinoid receptor 2 (Homo sapiens, UniProt P34972); experiment: SAR analysis of agonists of the Cannabinoid Receptor 2 using an Image-Based Assay - Set 3. [Related pubchem assays (depositor defined):AID2013, AID2026]; type: functional
[11] = target: T6, G-protein coupled receptor 35 (Homo sapiens, UniProt Q9HC97); experiment: SAR analysis of Antagonists of the GPR35 Receptor using an Image-Based Assay - Set 6. [Related pubchem assays (depositor defined):AID2013, AID2026]; type: functional
[12] = target: T6, G-protein coupled receptor 35; experiment: SAR analysis of Agonists of the GPR35 Receptor using an Image-Based Assay - Set 4. [Related pubchem assays (depositor defined):AID2013, AID2026]; type: functional
[13] = target: G-protein coupled receptor 55 (Homo sapiens, UniProt Q9Y2T6); experiment: SAR Analysis of Selective Antagonists of GPR55 using an Image-Based Assay - Set 4. [Related pubchem assays (depositor defined):AID2013, AID2026]; type: functional;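 note: antagonism of response to 5 µM lysophosphatidylinositol agonist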
Cannabinoid receptor 1 [14] = target: T7, Cannabinoid receptor 1 (Homo sapiens, UniProt P21554); experiment: SAR analysis of agonists of the Cannabinoid Receptor 1 using an Image-Based Assay - Set 4. [Related pubchem assays (depositor defined):AID2013, AID2026]; type: functional
Cannabinoid receptor 2 [15] = target: T5, Cannabinoid receptor 2; experiment: SAR analysis of antagonists of the Cannabinoid Receptor 2 using an Image-Based Assay - Set 3. [Related pubchem assays (depositor defined):AID2013, AID2026]; type: functional
Cannabinoid receptor 1 [16] = target: T7, Cannabinoid receptor 1; experiment: SAR analysis of antagonists of the Cannabinoid Receptor 1 using an Image-Based Assay - Set 4. [Related pubchem assays (depositor defined):AID2013, AID2026]; type: functional
[17] = target: T3, Kappa-type opioid receptor; experiment: kappa opioid receptor blockade potency – cell-based, luminescence, set 2, SAR follow-up (AID 2495); type: functional
Mu-type opioid receptor [18] = target: T1, Mu-type opioid receptor; experiment: SAR Analysis of Antagonists of the MOR Receptor using an Image-Based Assay - Set 2. [Related pubchem assays (depositor defined):AID1777, AID1785, AID1786, AID1966, AID2133, AID2136, AID2284, AID2285, AID2420]; type: functional
[19] = target: T3, Kappa-type opioid receptor; experiment: SAR analysis of Agonists of the Kappa Opioid Receptor (KOR) using an Image-Based Assay - Set 2. [Related pubchem assays (depositor defined):AID1777, AID1786, AID1966, AID2133, AID2136, AID2284, AID2285, AID2359]; type: functional
Mu-type opioid receptor [20] = target: T1, Mu-type opioid receptor; experiment: SAR Analysis of Agonists of the MOR Receptor using an Image-Based Assay - Set 2. [Related pubchem assays (depositor defined):AID1777, AID1785, AID1786, AID1966, AID2133, AID2136, AID2284, AID2285, AID2352]; type: functional
[21] = target: T3, Kappa-type opioid receptor; experiment: SAR analysis of Antagonists of the Kappa Opioid Receptor (KOR) using an Image-Based Assay - Set 2. [Related pubchem assays (depositor defined):AID1777, AID1785, AID1786, AID1966, AID2133, AID2136, AID2284, AID2285, AID2348]; type: functional
[22] = target: T2, Delta-type opioid receptor; experiment: SAR Analysis of Agonists of the DOR Receptor using an Image-Based Assay - Set 2. [Related pubchem assays (depositor defined):AID1777, AID1785, AID1786, AID1966, AID2133, AID2136, AID2284, AID2285, AID2370]; type: functional
[23] = target: T3, Kappa-type opioid receptor; experiment: SAR analysis of small molecule agonists of the kappa opioid receptor via a luminescent beta-arrestin assay - Set 2. [Related pubchem assays (depositor defined):AID1777, AID1785, AID1786, AID1966, AID2133, AID2136, AID2284, AID449737]; type: functional
[24] = target: T2, Delta-type opioid receptor; experiment: SAR Analysis of Antagonists of the DOR Receptor using an Image-Based Assay - Set 2. [Related pubchem assays (depositor defined):AID1777, AID1785, AID1786, AID1966, AID2133, AID2136, AID2284, AID2285, AID2357]; type: functional

T2 sequence (P41143 whole entry): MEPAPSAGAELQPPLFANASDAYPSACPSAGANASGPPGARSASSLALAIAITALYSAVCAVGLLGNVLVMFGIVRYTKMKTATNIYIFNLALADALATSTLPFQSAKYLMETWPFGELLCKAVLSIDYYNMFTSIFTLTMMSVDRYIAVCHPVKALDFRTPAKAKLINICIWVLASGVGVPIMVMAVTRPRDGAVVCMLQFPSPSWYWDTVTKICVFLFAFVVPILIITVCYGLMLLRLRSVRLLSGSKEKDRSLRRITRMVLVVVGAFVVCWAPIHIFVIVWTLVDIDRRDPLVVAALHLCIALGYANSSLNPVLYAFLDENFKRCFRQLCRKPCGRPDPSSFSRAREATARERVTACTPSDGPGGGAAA
T1 sequence (P35372 whole entry): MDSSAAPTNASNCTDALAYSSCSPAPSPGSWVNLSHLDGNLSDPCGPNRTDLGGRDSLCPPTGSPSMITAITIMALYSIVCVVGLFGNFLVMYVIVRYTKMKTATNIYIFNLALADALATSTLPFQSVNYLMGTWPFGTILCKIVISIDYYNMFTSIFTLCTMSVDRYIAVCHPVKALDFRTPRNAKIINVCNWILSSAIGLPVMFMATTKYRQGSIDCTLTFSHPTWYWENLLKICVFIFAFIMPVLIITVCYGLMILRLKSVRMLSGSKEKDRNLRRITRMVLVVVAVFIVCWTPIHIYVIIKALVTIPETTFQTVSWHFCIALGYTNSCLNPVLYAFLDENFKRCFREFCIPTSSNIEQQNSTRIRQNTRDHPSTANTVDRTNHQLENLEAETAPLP
T3 sequence (P41145 whole entry): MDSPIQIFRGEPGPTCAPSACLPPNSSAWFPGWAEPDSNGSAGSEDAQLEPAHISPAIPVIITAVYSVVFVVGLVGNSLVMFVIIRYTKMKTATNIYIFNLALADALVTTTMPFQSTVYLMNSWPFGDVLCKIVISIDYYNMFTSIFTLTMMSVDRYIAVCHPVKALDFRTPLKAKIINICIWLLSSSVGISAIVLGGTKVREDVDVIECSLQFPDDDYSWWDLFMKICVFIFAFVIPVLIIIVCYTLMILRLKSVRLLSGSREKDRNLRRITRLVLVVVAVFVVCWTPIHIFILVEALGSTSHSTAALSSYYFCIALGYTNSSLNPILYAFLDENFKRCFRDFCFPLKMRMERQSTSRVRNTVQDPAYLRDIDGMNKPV
T6 sequence (Q9HC97 whole entry): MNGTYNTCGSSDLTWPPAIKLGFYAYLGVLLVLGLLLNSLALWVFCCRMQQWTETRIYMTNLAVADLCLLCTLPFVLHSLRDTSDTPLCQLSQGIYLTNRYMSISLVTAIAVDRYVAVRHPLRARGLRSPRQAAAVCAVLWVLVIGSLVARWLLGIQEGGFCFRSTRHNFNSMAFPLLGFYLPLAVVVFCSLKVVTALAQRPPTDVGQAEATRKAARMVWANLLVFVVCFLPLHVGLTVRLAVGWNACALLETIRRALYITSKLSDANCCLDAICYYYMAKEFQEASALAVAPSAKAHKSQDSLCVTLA
T5 sequence (P34972 whole entry): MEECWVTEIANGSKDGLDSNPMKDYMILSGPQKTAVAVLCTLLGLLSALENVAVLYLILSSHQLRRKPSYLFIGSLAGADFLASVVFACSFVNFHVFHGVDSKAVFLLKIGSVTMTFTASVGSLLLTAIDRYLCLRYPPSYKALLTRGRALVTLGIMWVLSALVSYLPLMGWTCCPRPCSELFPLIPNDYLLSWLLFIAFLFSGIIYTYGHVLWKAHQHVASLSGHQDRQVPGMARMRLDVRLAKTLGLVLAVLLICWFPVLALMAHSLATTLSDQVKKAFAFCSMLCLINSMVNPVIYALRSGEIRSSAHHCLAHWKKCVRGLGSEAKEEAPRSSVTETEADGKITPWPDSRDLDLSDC
T4 sequence (P98170 whole entry, the tested form may be a part): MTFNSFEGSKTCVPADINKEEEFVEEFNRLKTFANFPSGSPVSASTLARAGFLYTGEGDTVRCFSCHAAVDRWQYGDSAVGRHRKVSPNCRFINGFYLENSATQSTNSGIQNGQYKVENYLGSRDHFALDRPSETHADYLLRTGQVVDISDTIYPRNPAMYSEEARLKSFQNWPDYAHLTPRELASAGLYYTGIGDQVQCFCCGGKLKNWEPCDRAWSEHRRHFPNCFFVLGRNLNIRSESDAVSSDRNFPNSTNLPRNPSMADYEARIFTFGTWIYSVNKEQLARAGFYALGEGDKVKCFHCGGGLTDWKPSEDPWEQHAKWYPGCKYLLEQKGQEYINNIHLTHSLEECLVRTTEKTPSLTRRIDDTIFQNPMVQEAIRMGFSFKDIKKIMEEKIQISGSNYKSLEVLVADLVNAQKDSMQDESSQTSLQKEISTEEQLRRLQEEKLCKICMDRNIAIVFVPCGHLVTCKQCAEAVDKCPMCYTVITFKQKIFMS
T7 sequence (P21554 whole entry): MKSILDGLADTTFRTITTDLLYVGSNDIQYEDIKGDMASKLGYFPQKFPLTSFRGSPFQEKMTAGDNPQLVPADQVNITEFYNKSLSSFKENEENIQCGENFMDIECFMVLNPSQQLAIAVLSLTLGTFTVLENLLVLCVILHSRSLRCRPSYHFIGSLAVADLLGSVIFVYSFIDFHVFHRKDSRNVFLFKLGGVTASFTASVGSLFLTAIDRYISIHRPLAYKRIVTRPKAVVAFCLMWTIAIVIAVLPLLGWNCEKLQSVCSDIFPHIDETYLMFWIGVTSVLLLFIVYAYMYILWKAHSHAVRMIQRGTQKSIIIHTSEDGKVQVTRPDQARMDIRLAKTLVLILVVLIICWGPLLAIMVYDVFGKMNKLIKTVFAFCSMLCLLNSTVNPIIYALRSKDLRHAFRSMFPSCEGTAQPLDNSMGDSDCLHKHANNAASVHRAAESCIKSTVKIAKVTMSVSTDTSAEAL
Chain of G-protein coupled receptor 55 (Q9Y2T6 whole entry): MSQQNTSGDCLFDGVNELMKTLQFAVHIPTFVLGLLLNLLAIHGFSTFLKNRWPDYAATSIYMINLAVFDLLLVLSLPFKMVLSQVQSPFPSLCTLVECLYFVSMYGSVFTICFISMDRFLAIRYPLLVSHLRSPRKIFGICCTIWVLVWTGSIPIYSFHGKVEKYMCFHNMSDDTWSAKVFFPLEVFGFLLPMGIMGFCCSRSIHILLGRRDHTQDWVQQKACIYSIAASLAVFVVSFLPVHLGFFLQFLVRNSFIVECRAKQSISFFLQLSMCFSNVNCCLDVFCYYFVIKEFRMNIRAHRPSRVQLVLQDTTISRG

With `O=C(CSc1nnc(-c2ccccn2)n1Cc1ccco1)c1ccc(Cl)cc1` the IC50 (Mu-type opioid receptor [1]) was > 32 µM (inactive), the EC50 [2] was > 32 µM (inactive) and the IC50 [3] was > 32 µM (inactive). For the same molecule, the EC50 (Mu-type opioid receptor [4]) was > 32 µM (inactive), the EC50 [5] was > 10 µM (inactive) and the EC50 [6] was 7.66 µM (active). The IC50 [7] was > 32 µM (inactive).
In the case of `CN[C@@H](C)C(=O)N[C@H](C(=O)N[C@H](C(=O)Nc1cccc2ccccc12)C(C)C)C(C)C`, the IC50 [8] is reported as > 100 µM (inactive) and the IC50 [9] is reported as 3.9 µM (active).
`COCCCNC(=O)c1cc2c(=O)n3ccccc3nc2n(C2CCCC2)c1=N` was tested, and the EC50 (Cannabinoid receptor 2 [10]) was 2.33 µM (active), the IC50 [11] was > 32 µM (inactive) and the EC50 [12] was > 32 µM (inactive). For the same molecule, the IC50 [13] was > 32 µM (inactive), the EC50 (Cannabinoid receptor 1 [14]) was > 32 µM (inactive) and the IC50 (Cannabinoid receptor 2 [15]) was > 32 µM (inactive). For the same molecule, the IC50 (Cannabinoid receptor 1 [16]) was > 32 µM (inactive).
For `Cc1cc(C)c(S(=O)(=O)NCc2ccc(C(=O)NCCN3Cc4ccccc4C3)cc2)c(C)c1`, the IC50 [17] was > 20 µM (inactive), the IC50 (Mu-type opioid receptor [18]) was > 32 µM (inactive) and the EC50 [19] was > 32 µM (inactive). The EC50 (Mu-type opioid receptor [20]) was > 32 µM (inactive), the IC50 [21] was > 32 µM (inactive) and the EC50 [22] was > 32 µM (inactive). For the same molecule, the EC50 [23] was 4.97 µM (active) and the IC50 [24] was 13.9 µM (inactive).
